Laboratory results reported in ChEMBL document CHEMBL3885861, “Open TG-GATES”.

Organism: Rattus norvegicus
Experiment: Open TG-GATES - Regimen: Daily Repeat
Format: toxicity, organism-based, Sprague-Dawley
Parameters: regimen Daily Repeat, gender Male, age 6 weeks
Settings: in vivo, po, 100 mg/kg, route gavage, dose level Low; for APTT / Bas / Eos / Fbg / Hb / Ht / Lym / MCH / MCHC / MCV / Mono / Neu / PT / Plat / RBC / Ret / WBC: tissue Blood; for KIDNEY_L / KIDNEY_R / KIDNEY_TOTAL: tissue Kidney; for LIVER: tissue Liver; for A/G / ALP / ALT / AST / BUN / CRE / Ca / Cl / DBIL / GLC / IP / K / LDH / Na / PL / RALB / TBIL / TC / TG / TP / gamma-GTP: tissue Plasma

CC(=O)[C@@]1(O)CC[C@H]2[C@@H]3C=C(Cl)C4=CC(=O)CC[C@]4(C)[C@H]3CC[C@@]21C [CHLORMADINONE]
TERMINAL_BW (72 h, time 3 day): 229.4 g | APTT (72 h, time 3 day): 26.3 s | Bas (72 h, time 3 day): 0% | Eos (72 h, time 3 day): 1% | Fbg (72 h, time 3 day): 311.6 mg/dL | Hb (72 h, time 3 day): 14.1 g/dL | Ht (72 h, time 3 day): 42.6% | Lym (72 h, time 3 day): 80.4% | MCH (72 h, time 3 day): 20.1 pg | MCHC (72 h, time 3 day): 33.1% | MCV (72 h, time 3 day): 60.6 fL | Mono (72 h, time 3 day): 2.4% | Neu (72 h, time 3 day): 15.6% | PT (72 h, time 3 day): 15.3 s | Plat (72 h, time 3 day): 122.1 x10_4/uL | RBC (72 h, time 3 day): 702.6 x10_4/ul | Ret (72 h, time 3 day): 5.8% | WBC (72 h, time 3 day): 113 x10_2/uL | KIDNEY_L (72 h, time 3 day): 1 g | KIDNEY_R (72 h, time 3 day): 1 g | KIDNEY_TOTAL (72 h, time 3 day): 2 g | LIVER (72 h, time 3 day): 10.5 g | A/G (72 h, time 3 day): 1.3 | ALP (72 h, time 3 day): 1589 IU/L | ALT (72 h, time 3 day): 54 IU/L | AST (72 h, time 3 day): 72.8 IU/L | BUN (72 h, time 3 day): 15.8 mg/dL | CRE (72 h, time 3 day): 0.2 mg/dL | Ca (72 h, time 3 day): 10.7 mg/dL | Cl (72 h, time 3 day): 106.2 meq/L | DBIL (72 h, time 3 day): 0 mg/dL | GLC (72 h, time 3 day): 192.4 mg/dL | IP (72 h, time 3 day): 7.4 mg/dL | K (72 h, time 3 day): 4.5 meq/L | LDH (72 h, time 3 day): 171.4 IU/L | Na (72 h, time 3 day): 141.6 meq/L | PL (72 h, time 3 day): 160.2 mg/dL | RALB (72 h, time 3 day): 3.1 g/dL | TBIL (72 h, time 3 day): 0.006 mg/dL | TC (72 h, time 3 day): 74 mg/dL | TG (72 h, time 3 day): 129.4 mg/dL | TP (72 h, time 3 day): 5.5 g/dL | gamma-GTP (72 h, time 3 day): 1.6 IU/L | TERMINAL_BW ([…], time 7 day): 252.1 g | TERMINAL_BW ([…], time 14 day): 293.5 g | TERMINAL_BW ([…], time 28 day): 362.8 g | APTT ([…], time 7 day): 27.7 s | Bas ([…], time 7 day): 0% | Eos ([…], time 7 day): 1% | Fbg ([…], time 7 day): 343.2 mg/dL | Hb ([…], time 7 day): 14.5 g/dL | Ht ([…], time 7 day): 43.2% | Lym ([…], time 7 day): 84% | MCH ([…], time 7 day): 20.2 pg | MCHC ([…], time 7 day): 33.6% | MCV ([…], time 7 day): 60.1 fL | Mono ([…], time 7 day): 2.2% | Neu ([…], time 7 day): 12% | PT ([…], time 7 day): 15.2 s | Plat ([…], time 7 day): 133.1 x10_4/uL | RBC ([…], time 7 day): 720.2 x10_4/ul | Ret ([…], time 7 day): 4.2% | WBC ([…], time 7 day): 118.1 x10_2/uL | APTT ([…], time 14 day): 27.9 s | Bas ([…], time 14 day): 0% | Eos ([…], time 14 day): 0.8% | Fbg ([…], time 14 day): 327.6 mg/dL | Hb ([…], time 14 day): 14.8 g/dL | Ht ([…], time 14 day): 43.9% | Lym ([…], time 14 day): 82% | MCH ([…], time 14 day): 19.5 pg | MCHC ([…], time 14 day): 33.8% | MCV ([…], time 14 day): 57.6 fL | Mono ([…], time 14 day): 2% | Neu ([…], time 14 day): 14.6% | PT ([…], time 14 day): 15.2 s | Plat ([…], time 14 day): 103.8 x10_4/uL | RBC ([…], time 14 day): 762.8 x10_4/ul | Ret ([…], time 14 day): 3.6% | WBC ([…], time 14 day): 100.2 x10_2/uL | APTT ([…], time 28 day): 27.1 s | Bas ([…], time 28 day): 0% | Eos ([…], time 28 day): 1% | Fbg ([…], time 28 day): 303.4 mg/dL | Hb ([…], time 28 day): 15.5 g/dL | Ht ([…], time 28 day): 45.1% | Lym ([…], time 28 day): 84.8% | MCH ([…], time 28 day): 19.2 pg | MCHC ([…], time 28 day): 34.4% | MCV ([…], time 28 day): 55.7 fL | Mono ([…], time 28 day): 1.6% | Neu ([…], time 28 day): 11.4% | PT ([…], time 28 day): 14.9 s | Plat ([…], time 28 day): 95 x10_4/uL | RBC ([…], time 28 day): 809 x10_4/ul | Ret ([…], time 28 day): 2.2% | WBC ([…], time 28 day): 106.1 x10_2/uL | KIDNEY_L ([…], time 7 day): 1.1 g | KIDNEY_R ([…], time 7 day): 1.1 g | KIDNEY_TOTAL ([…], time 7 day): 2.2 g | KIDNEY_L ([…], time 14 day): 1.1 g | KIDNEY_R ([…], time 14 day): 1.1 g | KIDNEY_TOTAL ([…], time 14 day): 2.3 g | KIDNEY_L ([…], time 28 day): 1.3 g | KIDNEY_R ([…], time 28 day): 1.3 g | KIDNEY_TOTAL ([…], time 28 day): 2.5 g | LIVER ([…], time 7 day): 11.1 g | LIVER ([…], time 14 day): 12 g | LIVER ([…], time 28 day): 14.2 g | A/G ([…], time 7 day): 1.2 | ALP ([…], time 7 day): 1694.8 IU/L | ALT ([…], time 7 day): 46.4 IU/L | AST ([…], time 7 day): 74.6 IU/L | BUN ([…], time 7 day): 16.2 mg/dL | CRE ([…], time 7 day): 0.2 mg/dL | Ca ([…], time 7 day): 10.7 mg/dL | Cl ([…], time 7 day): 106.8 meq/L | DBIL ([…], time 7 day): 0 mg/dL | GLC ([…], time 7 day): 185.4 mg/dL | IP ([…], time 7 day): 7.2 mg/dL | K ([…], time 7 day): 4.2 meq/L | LDH ([…], time 7 day): 148.4 IU/L | Na ([…], time 7 day): 140.6 meq/L | PL ([…], time 7 day): 155.2 mg/dL | RALB ([…], time 7 day): 3.1 g/dL | TBIL ([…], time 7 day): 0.002 mg/dL | TC ([…], time 7 day): 67.4 mg/dL | TG ([…], time 7 day): 200.6 mg/dL | TP ([…], time 7 day): 5.7 g/dL | gamma-GTP ([…], time 7 day): 2 IU/L | A/G ([…], time 14 day): 1.2 | ALP ([…], time 14 day): 1379.4 IU/L | ALT ([…], time 14 day): 44.8 IU/L | AST ([…], time 14 day): 72.8 IU/L | BUN ([…], time 14 day): 17.2 mg/dL | CRE ([…], time 14 day): 0.2 mg/dL | Ca ([…], time 14 day): 10.3 mg/dL | Cl ([…], time 14 day): 107.8 meq/L | DBIL ([…], time 14 day): 0 mg/dL | GLC ([…], time 14 day): 183.8 mg/dL | IP ([…], time 14 day): 6.5 mg/dL | K ([…], time 14 day): 4.2 meq/L | LDH ([…], time 14 day): 144.4 IU/L | Na ([…], time 14 day): 142.2 meq/L | PL ([…], time 14 day): 142.6 mg/dL | RALB ([…], time 14 day): 3.1 g/dL | TBIL ([…], time 14 day): 0.006 mg/dL | TC ([…], time 14 day): 69.2 mg/dL | TG ([…], time 14 day): 142.2 mg/dL | TP ([…], time 14 day): 5.7 g/dL | gamma-GTP ([…], time 14 day): 2 IU/L | A/G ([…], time 28 day): 1.1 | ALP ([…], time 28 day): 1170.6 IU/L | ALT ([…], time 28 day): 46.8 IU/L | AST ([…], time 28 day): 66.6 IU/L | BUN ([…], time 28 day): 18.8 mg/dL | CRE ([…], time 28 day): 0.2 mg/dL | Ca ([…], time 28 day): 10.5 mg/dL | Cl ([…], time 28 day): 105.8 meq/L | DBIL ([…], time 28 day): 0 mg/dL | GLC ([…], time 28 day): 192.8 mg/dL | IP ([…], time 28 day): 6.5 mg/dL | K ([…], time 28 day): 4.2 meq/L | LDH ([…], time 28 day): 142 IU/L | Na ([…], time 28 day): 142 meq/L | PL ([…], time 28 day): 155.4 mg/dL | RALB ([…], time 28 day): 3.1 g/dL | TBIL ([…], time 28 day): 0.006 mg/dL | TC ([…], time 28 day): 73.2 mg/dL | TG ([…], time 28 day): 178 mg/dL | TP ([…], time 28 day): 6 g/dL | gamma-GTP ([…], time 28 day): 2.2 IU/L
